US8729088B2, “Toll-like receptor modulators and treatment of diseases” (The Regents of the University of California, priority 2009, dated 2014)

Tests used:
TLR7 [1] = target: T1, TLR7 (Mus musculus, UniProt P58681); assay: Cytokine induction in BMDM from wild type and TLR7 deficient mice; assay type: cell-based; set-up: endogenous in cells; host or cells: primary BMDM from C57BL/6 mice; conditions: wild type BMDM
T1 sequence (P58681 27-1050): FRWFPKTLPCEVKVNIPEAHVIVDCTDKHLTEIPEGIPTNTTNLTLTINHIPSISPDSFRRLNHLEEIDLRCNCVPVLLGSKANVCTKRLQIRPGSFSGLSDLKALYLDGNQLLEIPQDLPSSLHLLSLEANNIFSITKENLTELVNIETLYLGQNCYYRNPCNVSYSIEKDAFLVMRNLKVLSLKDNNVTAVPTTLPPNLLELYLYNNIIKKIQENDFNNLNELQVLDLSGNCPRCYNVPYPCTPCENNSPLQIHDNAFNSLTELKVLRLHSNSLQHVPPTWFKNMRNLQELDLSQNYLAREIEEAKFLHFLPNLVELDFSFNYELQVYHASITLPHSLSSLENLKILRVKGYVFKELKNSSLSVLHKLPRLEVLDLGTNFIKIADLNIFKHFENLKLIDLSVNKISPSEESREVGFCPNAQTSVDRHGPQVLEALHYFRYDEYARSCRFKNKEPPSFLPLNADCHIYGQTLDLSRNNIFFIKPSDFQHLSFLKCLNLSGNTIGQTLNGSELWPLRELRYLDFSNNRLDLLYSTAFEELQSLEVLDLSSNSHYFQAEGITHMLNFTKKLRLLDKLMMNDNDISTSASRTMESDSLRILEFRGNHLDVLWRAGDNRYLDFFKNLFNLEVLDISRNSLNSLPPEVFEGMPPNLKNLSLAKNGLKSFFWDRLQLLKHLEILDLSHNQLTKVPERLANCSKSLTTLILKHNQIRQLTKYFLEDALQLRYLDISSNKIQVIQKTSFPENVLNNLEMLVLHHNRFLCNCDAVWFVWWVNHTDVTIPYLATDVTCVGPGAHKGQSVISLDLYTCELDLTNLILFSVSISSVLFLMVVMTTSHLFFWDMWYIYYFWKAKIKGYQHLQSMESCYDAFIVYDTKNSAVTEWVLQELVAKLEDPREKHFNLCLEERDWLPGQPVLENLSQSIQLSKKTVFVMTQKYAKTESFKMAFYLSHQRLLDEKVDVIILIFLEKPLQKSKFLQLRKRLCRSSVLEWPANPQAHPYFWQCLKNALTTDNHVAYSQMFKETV
Experimental: (§1) In vitro measurements of cytokine induction were performed using the mouse leukemic monocyte macrophage cell line, RAW264.7. […] BMDM were prepared from C57BL/6 and TLR7 deficient mice as described in Wu, C. C et al., (2007) “Immunotherapeutic activity of a conjugate of a Toll-like receptor 7 ligand”, Proc Natl Acad Sci USA 104, 3990-5.
(§2) In general, RAW264.7 cells or BMDM were incubated with various concentrations of conjugates for 18 hours at 37° C., 5% CO2 and culture supernatants were collected. The levels of cytokines (IL-6, IL-12 or TNF-α in the supernatants were determined by ELISA (BD Biosciences Pharmingen, La Jolla, Calif.) (Cho, H. J et al., “Immunostimulatory DNA-based vaccines induce cytotoxic lymphocyte activity by a T-helper cell-independent mechanism” [see comments], Nat Biotechnol 18, 509-14 (2000)), and the results presented in FIG. 2A-D. Data are mean±SEM of triplicates and are representative of three independent experiments. Minimum detection levels of these cytokines were 15 pg/mL.

TLR7 [2] = target: T1, TLR7; assay: In vitro cytokine induction in murine macrophages (RAW264.7, BMDM), ELISA; assay type: cell-based; set-up: endogenous in cells; host or cells: RAW264.7 (ATCC); primary BMDM from C57BL/6 mice; conditions: for potency compared to the unconjugated TLR7 (SM): ELISA; for potency of cytokine induction in comparison to the unmodified TLR7 agonist: in vitro and in vivo
Experimental: as §1, §2
TNFα levels were measured (see FIG. 2A) by incubating approximately 1×10^6/mL RAW 264.7 cells with the various conjugates or controls, as described above. IL-6 and IL12 levels were measured (see FIG. 2B-D) by incubating 0.5×10^6/mL BMDM with the various conjugates or controls, as described above.
Using a similar assay, the in vitro potency of the lipid-TLR agonist conjugates (FIG. 1, compound 6), PEG-TLR7 agonist conjugates (FIG. 1, compound 8), and PEG-lipid (FIG. 1, compound 9) conjugates were compared using a murine macrophage cell line, RAW264, and primary bone marrow derived macrophages (BMDM). The respective cells were stimulated for 18 hours with serially diluted TLR7 conjugates and the levels of cytokines released in the media were measured by ELISA and compared to the unconjugated TLR7 agonist (SM) (see FIG. 2A, panels A-D).

Row | SMILES | agonist activity (IL-12, IL-6) (TLR7 [1]) | potency as a cytokine inducer compared to the unconjugated agonist (TLR7 [2]; normalized to the molar level of the unconjugated agonist, RAW264, BMDM, 18 hours) [fold] | potency compared to the unconjugated TLR7 (SM) (TLR7 [2]; RAW264, BMDM, 18 hours) | potency of cytokine induction in comparison to the unmodified TLR7 agonist (TLR7 [2])
1 | CCCCCCCC/C=C\CCCCCCCC(=O)OCC(COP(=O)(O)OCCNC(=O)c1ccc(Cn2c(=O)[nH]c3c(N)nc(OCCOC)nc32)cc1)OC(=O)CCCCCCC/C=C\CCCCCCCC (centres unmarked) [Compound 6, 2-(4-((6-amino-2-(2-methoxyethoxy)-8-oxo-7H-purin-9(8H)-yl)methyl)benzamido)ethyl 2,3-bis(oleoyloxy)propyl phosphate] | active | 10 | – | –
2 | COCCOc1nc(N)c2nc(O)n(Cc3ccc(C(=O)NCCOCCOCCOCCOCCOCCOCCOCCOCCOCCOCCn4cc(CCC(=O)O)nn4)cc3)c2n1 [Compound 8, 3-(1-(1-(4-((6-amino-8-hydroxy-2-(2-methoxyethoxy)-9H-purin-9-yl)methyl)phenyl)-1-oxo-5,8,11,14,17,20,23,26,29,32-decaoxa-2-azatetratriacontan-34-yl)-1H-1,2,3-triazol-4-yl)propanoic acid] | active | – | less potency | attenuated
3 | CCCCCCCC/C=C\CCCCCCCC(=O)OCC(COP(=O)(O)OCCNC(=O)CCc1cn(CCOCCOCCOCCOCCOCCOCCOCCOCCOCCOCCNC(=O)c2ccc(Cn3c(O)nc4c(N)nc(OCCOC)nc43)cc2)nn1)OC(=O)CCCCCCC/C=C\CCCCCCCC (centres unmarked) [Compound 9, 2-(3-(1-(1-(4-((6-amino-8-hydroxy-2-(2-methoxyethoxy)-9H-purin-9-yl)methyl)phenyl)-1-oxo-5,8,11,14,17,20,23,26,29,32-decaoxa-2-azatetratriacontan-34-yl)-1H-1,2,3-triazole-4-yl)propanamido)ethyl 2,3-bis(oleoyloxy)propyl phosphate] | active | – | restored their potency to the similar level of the unconjugated TLR7 (SM) | restored
